Test results published in US20040171680A1, “Treating Syndrome X with substituted tetralins and indanes” (priority 2002, published 2004).
Read-outs that look alike come from different tables or passages of the source.

Experiments:
Format in all cases: cell-based
[1] = target: T1, PPARγ (Homo sapiens, UniProt P37231); test: aP2 Assay for PPAR gamma Agonists (bDNA aP2 mRNA in preadipocytes); conditions: fold induction; PPARγ standard: FI = 70.3
T1 construct: Following the challenge of the preadipocytes, cells may be lysed with lysis buffer; endogenous in cells; host or cells: preadipocytes
T1 sequence (P37231 1-505): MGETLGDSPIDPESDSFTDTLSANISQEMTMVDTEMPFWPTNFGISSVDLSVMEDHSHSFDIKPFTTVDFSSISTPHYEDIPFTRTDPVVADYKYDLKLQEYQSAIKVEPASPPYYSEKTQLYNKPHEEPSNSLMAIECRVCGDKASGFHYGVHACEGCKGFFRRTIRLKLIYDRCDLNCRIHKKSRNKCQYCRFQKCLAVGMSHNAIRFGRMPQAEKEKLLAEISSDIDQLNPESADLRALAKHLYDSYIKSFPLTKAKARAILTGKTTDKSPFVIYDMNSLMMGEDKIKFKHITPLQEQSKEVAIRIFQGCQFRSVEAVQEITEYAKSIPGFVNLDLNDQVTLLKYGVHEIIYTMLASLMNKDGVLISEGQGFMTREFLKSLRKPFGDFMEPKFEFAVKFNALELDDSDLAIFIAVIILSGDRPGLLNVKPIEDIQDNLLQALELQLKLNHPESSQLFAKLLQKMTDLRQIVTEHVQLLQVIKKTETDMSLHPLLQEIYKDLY
Description: aP2 Assay for PPAR gamma Agonists
The procedure is described in detail in Burris et al., Molecular Endocrinology, 1999, 13:410, which is hereby incorporated by reference in its entirety, and aP2 assay results of agonist intrinsic activity may be presented as fold increase over vehicle in induction of aP2 mRNA production.
Twenty-four hours after the initial seeding of the 96-well plates by hand (around 20,000/well), the differentiation assay may be initiated. Medium may be removed and replaced with […] of differentiation medium containing vehicle (DMSO) or test compounds. Cells may be returned to incubator for 24 hours culture. At the termination of the challenge, medium may be removed and 100 ul of lysis buffer may be added to initiate the bDNA aP2 mRNA assay. The branched DNA assay may be performed according to the manufacturer's protocol (Bayer Diagnostics; Emeryville, Calif.). Result may be expressed as the fold increase of aP2 mRNA production activated over vehicle controls. EC50's and Emax may be determined by non-linear regression with a sigmoidal fit curve.
Following the challenge of the preadipocytes, cells may be lysed with lysis buffer (Bayer Diagnostics) containing the aP2 oligonucleotides. After a 15 minute incubation at 53° C. or 30 minutes at 37° C. incubator, 70 ul of the lysis buffer from each well may be added to a corresponding capture well (preincubated with 70 ul of blocking buffer (Bayer Diagnostics)). The capture plate may be incubated overnight at 53° C. in a plate incubator (Bayer Diagnostics). After this incubation, the bDNA and labeled probes may be annealed as directed by the manufacturer. Following a 30-minute incubation with the luminescent alkaline phosphatase substrate, dioxitane, the luminescence may be quantitated in a Dynex MLX microtiter plate luminometer. Oligonucleotide probes designed to anneal to the aP2 mRNA and function in the bDNA mRNA detection system are designed with ProbeDesigner software (Bayer Diagnostics). This software package analyzes a target sequence of interest with a series of algorithms in order to determine which regions of the sequence can perform as locations for capture, label, or spacer probe annealing. The sequences of the oligonucleotides are as follows: […]

[2] = target: T2, PPARα (Rattus norvegicus, UniProt P37230); test: HD bDNA Assay (HD gene induction)
T2 construct: H4IIE rat hepatoma cell line was obtained from ATCC; host or cells: H4IIE rat hepatoma cells
T2 sequence (P37230 1-468): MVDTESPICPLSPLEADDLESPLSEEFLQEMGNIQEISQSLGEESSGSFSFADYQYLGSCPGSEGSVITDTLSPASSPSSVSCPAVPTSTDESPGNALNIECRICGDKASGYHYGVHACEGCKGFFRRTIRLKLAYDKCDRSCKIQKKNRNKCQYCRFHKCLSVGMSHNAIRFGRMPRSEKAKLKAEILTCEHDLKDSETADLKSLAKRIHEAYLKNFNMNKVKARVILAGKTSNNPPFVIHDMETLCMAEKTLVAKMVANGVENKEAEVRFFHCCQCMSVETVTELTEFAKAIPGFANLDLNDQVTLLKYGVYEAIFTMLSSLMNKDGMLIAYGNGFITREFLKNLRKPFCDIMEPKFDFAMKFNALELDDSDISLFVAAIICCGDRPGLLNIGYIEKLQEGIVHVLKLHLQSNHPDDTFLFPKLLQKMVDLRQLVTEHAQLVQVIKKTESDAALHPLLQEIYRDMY
Description: HD bDNA Assay H4IIE rat hepatoma cell line was obtained from ATCC. Cells were cultured in 175 cm^2 tissue culture flask or seeded in 96-well plate with (high serum content, 10% fetal bovine serum and 10% calf serum) culture medium and maintained at 37° C. and 5% CO2 throughout study. Twenty-four hours after the initial seeding of the 96-well plate by hand (approximate 100,000/well), the HD gene induction assay was initiated. Media was removed and replaced with 100 ul of low serum culture media (5% charcoal/dextran treated calf serum) containing vehicle (DMSO) or test compounds or standard. Cells returned to incubator for 24 hours culture. At the termination of the challenge, 50 ul lysis buffer with HD gene specific CE, LE, BL probes was added directly into each well to initiate the bDNA HD mRNA assay. The branched DNA assay was performed according to the manufacturer's protocol (Bayer Diagnostics; Emeryville. Calif.). At the end of the assay, the luminescence was quantitated in Dynex MLX microtiter plate luminometer. EC50's were determined by non-linear regression with a sigmoidal fit utilizing Graphpad Prism.

[3] = target: T3, PPARδ (Homo sapiens, UniProt Q03181); test: Transfection Assay for PPARδ Receptors (PPAR-Gal4 / Gal4-Luciferase reporter in HEK293 cells); conditions: for EC50: values in square brackets; for PPARδ FI: fold induction, PPARδ standard: FI = 36.1
T3 construct: a Gal4-Luciferase reporter is co-transfected
T3 sequence (Q03181 171-441 limits assumed): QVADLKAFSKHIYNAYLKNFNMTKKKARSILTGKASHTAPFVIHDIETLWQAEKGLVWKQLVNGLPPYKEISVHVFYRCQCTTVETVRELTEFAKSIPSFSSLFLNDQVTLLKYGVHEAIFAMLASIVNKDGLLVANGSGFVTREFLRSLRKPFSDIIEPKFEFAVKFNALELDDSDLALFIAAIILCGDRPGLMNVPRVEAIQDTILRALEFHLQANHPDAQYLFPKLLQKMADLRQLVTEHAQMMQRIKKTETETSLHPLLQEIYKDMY
Description: Transfection Assay for PPARδ Receptors
HEK293 cells were grown in DMEM/F-12 Media supplemented with 10% FBS and glutamine (GIBCOBRL). The cells were co-transfected with DNA for PPAR-Gal4 receptor and Gal4-Luciferase Reporter using the DMRIE-C Reagent. On the following day, the DNA-containing medium were replaced with 5% Charcoal treated FBS growth medium. After six hours, cells were seeded in 96 well plate and incubated at 37° C. in CO2 incubator overnight. Cells were challenged by test compounds and incubated for 24 hours at 37° C. in 5% CO2 incubator. Luciferase activity was assayed using the Steady-Glo Luciferase Assay Kit from Promega. DMRIE-C Reagent was purchased from GIBCO Cat. No.10459-014. OPTI-MEM I Reduced Serum Medium was purchased from GIBCO Cat. No. 31985. Steady-Glo Luciferase Assay Kit was obtained from Promega Part# E254B.

[4] = in section F, target not named there, values match the PPARα column, read-out: EC50
[5] = H4IIE rat hepatoma cells, 24 hours, read-out: PPARα EC50

SMILES	PPARγ FI [1]	EC50 [2, 4] [nM]	EC50 [3] [nM]	EC50 [2, 5] [nM]	PPARδ FI [3]
CC(C)CCN(C(=O)Nc1ccc(C(C)C)cc1)C1Cc2ccc(SC(C)(C)C(=O)O)cc2C1 (stereo not drawn) [Example 21, 2-{2-[3-(4-Isopropylphenyl)-1-(3-methylbutyl)ureido]indan-5-ylsulfanyl}-2-methylpropionic acid]	0.05	106			
CCN(C(=O)Nc1ccc(OC(F)(F)F)cc1)C1CCc2cc(OC(C)(C)C(=O)O)ccc2C1 (stereo not drawn) [Example 48, 2-{6-[1-Ethyl-3-(4-trifluoromethoxyphenyl)ureido]-5,6,7,8-tetrahydronaphthalen-2-yloxy}-2-methylpropionic acid]			> 3000	14	
CCCN(C(=O)Nc1ccc(OC)cc1)C1Cc2ccc(SC(C)(C)C(=O)O)cc2C1 (stereo not drawn) [Example 32, 2-{2-[3-(4-Methoxyphenyl)-1-propylureido]indan-5-ylsulfanyl}-2-methylpropionic acid]				497	1.5
CCN(C(=O)Nc1ccc(OC(F)(F)F)cc1)C1CCc2cc(SC(C)(C)C(=O)O)c(Cl)cc2C1 (stereo not drawn) [Example 51, 2-{6-[1-Ethyl-3-(4-trifluoromethoxyphenyl)ureido]-3-chloro-5,6,7,8-tetrahydronaphthalen-2-ylsulfanyl}-2-methylpropionic acid]		27	> 10000		
C=CCCCN(C(=O)Nc1ccc(OC(F)(F)F)cc1)C1Cc2ccc(SC(C)(C)C(=O)O)cc2C1 (stereo not drawn) [Example 19, 2-Methy-2-{2-[1-pent-4-enyl-3-(4-trifluoromethoxyphenyl)ureido]indan-5-ylsulfanyl}propionic acid]		125			1.4
CC(C)(Sc1ccc2c(c1)CC(N(CCCC1CCCC1)C(=O)Nc1ccc(OC(F)(F)F)cc1)C2)C(=O)O (stereo not drawn) [Example 28, 2-{2-[1-(3-Cyclopentylpropyl)-3-(4-trifluoromethoxyphenyl)ureido]indan-5-ylsulfanyl}-2-methylpropionic acid]				323	8.2
CCCN(C(=O)Nc1ccc(OC(F)(F)F)cc1)C1CCc2ccc(SC(C)(C)C(=O)O)cc2C1 (stereo not drawn) [Example 46, 2-Methyl-2-{7-[1-propyl-3-(4-trifluoromethoxyphenyl)ureido}-5,6,7,8-tetrahydronaphthalen-2-ylsulfanyl}propionic acid]				1390	6.0
CCN(C(=O)Nc1ccc(OC(F)(F)F)cc1)C1CCc2cc(SC(C)(C)C(=O)O)c(C)cc2C1 (stereo not drawn) [Example 53, 2-{6-[1-Ethyl-3-(4-trifluoromethoxyphenyl)ureido]-3-methyl-5,6,7,8-tetrahydronaphthalen-2-ylsulfanyl}-2-methylpropionic acid]		42	873		
CCN(C(=O)Nc1ccc(OC(F)(F)F)cc1)C1CCc2cc(SC(C)(C)C(=O)O)c(-c3ccccc3)cc2C1 (stereo not drawn) [Example 55, 2-{6-[1-Ethyl-3-(4-trifluoromethoxyphenyl)ureido]-3-phenyl-5,6,7,8-tetrahydronaphthalen-2-ylsulfanyl}-2-methylpropionic acid]		545	1720		
CCN(C(=O)Nc1ccc(OC(F)(F)F)cc1)C1CCc2cc(SC(C)(C)C(=O)O)c(OC(F)(F)F)cc2C1 (stereo not drawn) [Example 54, 2-{6-[1-Ethyl-3-(4-trifluoromethoxyphenyl)ureido]-3-trifluoromethoxy-5,6,7,8-tetrahydronaphthalen-2-ylsulfanyl}-2-methylpropionic acid]		131	> 3000		
CCCN(C(=O)Nc1cc(C)cc(C)c1)C1Cc2ccc(SC(C)(C)C(=O)O)cc2C1 (stereo not drawn) [Example 33, 2-{2-[3-(3,5-Dimethylphenyl)-1-propylureido]indan-5-ylsulfanyl}-2-methylpropionic acid]				537	0.8
CCCCCCN(C(=O)Nc1ccc(SC(F)(F)F)cc1)C1Cc2ccc(SC(C)(C)C(=O)O)cc2C1 (stereo not drawn) [Example 15, 2-Methyl-2-{2-[1-hexyl-3-(4-trifluoromethylsulfanylphenyl)ureido]indan-5-ylsulfanyl}propionic acid]		123			1.2
CCN(C(=O)Nc1ccc(OC(F)(F)F)cc1)C1CCc2cc(SC(C)(C)C(=O)O)c(OC)cc2C1 (stereo not drawn) [Example 47, 2-{6-[1-Ethyl-3-(4-trifluoromethoxyphenyl)ureido]-3-methoxy-5,6,7,8-tetrahydronaphthalen-2-ylsulfanyl}-2-methylpropionic acid]		45	> 3000		
CCN(C(=O)Nc1cccc(OC(F)(F)F)c1)C1Cc2ccc(SC(C)(C)C(=O)O)cc2C1 (stereo not drawn) [Example 26, 2-{2-[1-Ethyl-3-(3-trifluoromethoxyphenyl)ureido]indan-5-ylsulfanyl}-2-methylpropionic acid]				130	2.1
CC(C)(Sc1ccc2c(c1)CC(N(CCCC1CCCC1)C(=O)Nc1ccccc1)C2)C(=O)O (stereo not drawn) [Example 37, 2-{2-[1-(3-Cyclopentylpropyl)-3-phenylureido]indan-5-ylsulfanyl}-2-methylpropionic acid]				838	1.9
